Consider four molecules from patent US10752901B2, “Inhibition of ferrochelatase as an antiangiogenic therapy” (Indiana University Research and Technology Corporation, priority 2015, dated 2020).

Data set [1] deals with HRECs. The data set is described as follows: In vitro Matrigel tube formation assay. The class given is cell-based, human. On the procedure: The ability of HRECs to form tubes in vitro was monitored as described in Basavarajappa et al., J Med Chem 58, pp. 5015-5027 (2015). Briefly, HRECs were treated with the indicated concentrations of compounds or DMSO or siRNAs for 48 hours and then 15,000 HRECs in 100 μL of EGM-2 medium containing siRNAs, DMSO or compounds were added to each well of a 96-well plate that was pre-coated with 50 μL of Matrigel basement membrane. Photographs of each well at different time points were taken to measure the tube formation using the Angiogenesis Analyzer plugin in ImageJ software (v.1.48).

In data set [2] the test system is HRECs. Description: Scratch-wound migration assay. The class given is cell-based, human. On the procedure: The migration of HRECs was monitored as described in Basavarajappa et al., PLoS One 9, e95694 (2014). Briefly, HRECs were grown until confluency in 6-well plates and then serum starved overnight in EBM-2 medium. Then, using a sterile 10 μL tip, a scratch was introduced in each well and fresh EGM-2 medium containing DMSO or different concentrations of compounds was added to the wells. For knockdown experiments, the scratch was introduced 48 hours after transfection and fresh medium was added to the wells. Photographs of the wells were taken at different time points to measure the number of migrated cells into the scratched area.

Data set [3] deals with HRECs. The data set is described as follows: Cell proliferation assay (alamarBlue), HRECs. The class given is cell-based, human. On the procedure:
Proliferation of cells was monitored as described in Basavarajappa et al., PLoS One 9 (2014). Briefly, after FECH knockdown 2,500 cells in 100 μL of growth medium were plated in each well of 96-well clear-bottom black plates and incubated for 24 hours. Then, compound/DMSO vehicle (final DMSO concentration of 1%) were added and the plates were incubated for 44 hours in 100 μL media at 37° C. and 5% CO2. Then, 11.1 μL of alamarBlue reagent was added to each well of the plate and 4 hours later fluorescence readings were taken at excitation and emission wavelengths of 560 nm and 590 nm respectively using a Synergy H1 plate reader (BioTek, Winooski, Vt., USA). The concentration ranges of griseofulvin and NMPP used were 0.5 nM-500 μM and 0.1 nM-100 μM respectively.
Background: The colour change of resazurin is a common sign of viable cells or microbes.

In data set [4] the test system is choroidal neovascularization. Description: L-CNV model (laser-induced choroidal neovascularization). The class given is in vivo, mouse. As to conditions: L-CNV mice.
The conditions of data set [5]: antifungal treatment of humans; cited from earlier work.
The nature of data set [6]: Oral griseofulvin systemic effects (mouse and liver weights). As to conditions: oral feeding. The class given is in vivo. The procedure:
Mice were fed griseofulvin for a total of 3 weeks, with chow changed every 2-3 days. Standard mouse chow (5 g/mouse/day) was mixed in water (2.2 mL H2O/gram chow), soaked for 15 minutes, then mashed. Griseofulvin doses were prepared at 0.0% (control), 0.5%, and 1.0% with 0.0 g, 0.5 g, and 1.0 g griseofulvin: 10 mL corn oil: 100 g mouse chow ratio, respectively. […] The corn oil solutions and mouse chow mixture were manually mixed thoroughly for 10 minutes. During treatment, the mice were examined and weighed 3 times/week (FIG. 1A). On Day 8, mice underwent L-CNV as above, and were imaged by OCT at Day 15 and Day 22, at which time they were euthanized. The eyes were enucleated and flatmounts prepared as above. The livers were dissected out and weighed (FIG. 1B).

For the next data set, the system named is mouse choroid-sclera. Description: Choroidal sprouting assay. The format is cell-based. The conditions noted are these: ex vivo, 48 hours with compound. On the procedure: To assess choroidal sprouting, pieces of choroid-sclera dissected from euthanized mouse eyes were embedded in Matrigel and grown in EGM-2 medium plus antibiotics for 72 hours to allow sprouting to initiate. The indicated concentrations of griseofulvin (in DMSO, final DMSO concentration 1%) were added and growth allowed to proceed for 48 hours. Images were taken and growth quantified by measuring distance from the edge of the choroidal piece to the growth front in 4 directions per sample.

A further data set addresses T1, FECH (Homo sapiens, UniProt P22830).
T1 construct: host or cells: HRECs (human retinal endothelial cells)
T1 sequence (P22830 55-423): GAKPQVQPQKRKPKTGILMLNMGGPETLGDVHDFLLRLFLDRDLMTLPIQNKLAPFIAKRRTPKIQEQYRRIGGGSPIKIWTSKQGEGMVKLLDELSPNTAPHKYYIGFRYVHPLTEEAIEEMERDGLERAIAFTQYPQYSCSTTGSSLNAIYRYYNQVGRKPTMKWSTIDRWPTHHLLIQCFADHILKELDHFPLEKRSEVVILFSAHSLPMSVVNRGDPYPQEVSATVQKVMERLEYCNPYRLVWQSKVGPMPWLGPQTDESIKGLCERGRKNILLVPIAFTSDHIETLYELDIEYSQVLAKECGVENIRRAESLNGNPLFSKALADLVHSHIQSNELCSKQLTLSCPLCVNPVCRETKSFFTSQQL
Description: PPIX build-up assay. The class given is cell-based. As to conditions: HRECs, 5-ALA induced. On the procedure: HRECs were grown in a 6-well plate until confluent. Then, cells were serum starved overnight in EBM-2 medium. Fresh EGM-2 medium containing DMSO or compounds was added to cells, and they were incubated at 37° C. for 1 hour followed by addition of 1 mM 5-ALA to increase flux through the heme biosynthetic pathway. After 3 hours of incubation in the dark at 37° C., the cells were trypsinized and lysed in buffer containing 25 mM HEPES-NaOH pH 7.4, 150 mM NaCl, 1% NP-40, 10% glycerol and 1 mM PMSF. The cell lysates were incubated in the dark at 4° C. for 20 minutes on a shaker and centrifuged at 12000×g for 15 minutes. Supernatants were collected for analysis. In a 384-well black plate, 20 μL of supernatant was mixed with 20 μL of 1:1 solution of 2 M perchloric acid and methanol. After 5 minutes of incubation, fluorescence readings were taken at excitation and emission wavelengths of 407 nm and 610 nm using the Synergy plate reader.

The subject of another data set is endothelial cells. Description: Anti-proliferative activity of cremastranone. The format is cell-based, human. As to conditions: endothelial versus non-endothelial cells.
The target of a further data set is T2, ferrochelatase (Sus scrofa, UniProt F1S1X4).
T2 construct: from tissue; host or cells: porcine brain lysate (S2 and S3 supernatants)
T2 sequence (F1S1X4 1-433): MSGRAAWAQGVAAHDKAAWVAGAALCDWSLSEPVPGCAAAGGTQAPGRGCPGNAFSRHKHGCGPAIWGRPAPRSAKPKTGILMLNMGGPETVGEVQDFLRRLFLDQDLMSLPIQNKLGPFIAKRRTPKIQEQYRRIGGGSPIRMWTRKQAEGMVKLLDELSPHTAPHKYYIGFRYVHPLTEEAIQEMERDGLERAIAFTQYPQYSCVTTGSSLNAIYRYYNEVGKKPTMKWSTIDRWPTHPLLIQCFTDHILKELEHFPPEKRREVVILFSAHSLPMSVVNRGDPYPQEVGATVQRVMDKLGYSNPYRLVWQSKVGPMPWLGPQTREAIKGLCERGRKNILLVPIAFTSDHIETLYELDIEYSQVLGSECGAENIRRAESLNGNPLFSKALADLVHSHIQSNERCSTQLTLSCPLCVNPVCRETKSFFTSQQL
Description: Photoaffinity pull down from porcine brain lysate. As to conditions: competition with excess (1 mM) cremastranone isomer; immunoblot band intensity. The class given is binding. The procedure: Synthesis and characterization of affinity reagents 2 and 3 are shown in WO2014182695A1, filed May 6, 2014, and incorporated by reference to the extent it is consistent herewith. Compounds 1 and 4 were synthesized as described in Lee et al., Org Biomol Chem 28, p. 28 (2014); Basavarajappa et al., PLoS One 9, e95694 (2014). For pulldowns, Neutravidin agarose beads (1 mL of 50% slurry) were washed three times in buffer A containing 25 mM Tris-HCl pH 7.4, 150 mM NaCl, 2.5 mM sodium pyrophosphate, 1 mM phenylmethylsulfonyl fluoride (PMSF), 0.1 mM sodium orthovanadate, 10 μg/mL aprotinin and 10 μg/mL leupeptin. The beads were then incubated with 100 μM affinity or control reagents 2 or 3 overnight at 4° C. with rotation. […]
The beads were collected by centrifugation at 500×g for 5 minutes, then resuspended in 1 mL of buffer B and irradiated with 365 nm UV light (Mercury bulb H44GS100 from Sylvania in a Black-Ray 100 A long-wave UV lamp) in a 60 mm Petri dish for 30 minutes at 4° C. […] The eluates were then analyzed in 4-20% gradient SDS-PAGE and the protein bands were visualized using silver staining. The protein bands pulled down specifically by photo-affinity reagent were excised from the silver stained SDS-PAGE gel and analyzed by mass spectrometry (IUSM Proteomics Core). […]
(In general: In western blotting, separated proteins are transferred to a membrane and probed.)

Regarding N-methyl protoporphyrin [NMPP], in the data set with HRECs [1], the “tube formation ability of HRECs” value is recorded as “inhibited”. The “migration of HRECs” value with HRECs [2] was “inhibited”. In addition, the “proliferation of HRECs” value in the data set on HRECs [3] was “inhibited”.

With `COC1=CC(=O)C[C@@H](C)[C@]12Oc1c(Cl)c(OC)cc(OC)c1C2=O` [griseofulvin], the neovascularization entry is listed as “decreased neovascularization” in data set [4] (feeding 0.5% and 1% in chow); “dose-dependent results” in [4] (single intravitreal injection 50 μM, 100 μM). The “tube formation ability of HRECs” value with HRECs [1] is given as “inhibition of tube formation”. The “concentration attained in plasma” value in data set [5] was 1 to 2 µg/mL. Moreover, the “migration of HRECs” value with HRECs [2] is listed as “inhibition of migration”. In addition, the “proliferation of HRECs” value in the data set with HRECs [3] was “dose-dependent antiproliferative effects”. For the same molecule, the “concentration of griseofulvin needed to have effects” value in the data set with HRECs [3] (HRECs in vitro (proliferation, migration, tube formation)) is roughly 10 µM. Also, the liver weights entry in data set [6] is “increased”. The mouse weights entry in [6] (experimental timecourse) was “did not significantly change”. Besides, the “formation of microvascular sprouts” value in the data set with mouse choroid-sclera is given as “inhibited formation of microvascular sprouts”.

On to `COc1ccc(CC2COc3cc(O)c(OC)c(O)c3C2=O)cc1O` (centres unmarked) [cremastranone], for which the “buildup of PPIX” value at FECH is on record as “dose-dependent buildup of PPIX”. Besides, the antiproliferative effects entry with endothelial cells is “selective antiproliferative effects on endothelial cells”. Further, in the data set on HRECs [3] (HRECs, addition of 5-aminolevulinic acid), the “rescue of antiproliferative effects by excess 5-ALA” value is reported as “partially rescued”.

With `COc1ccc(CC2COc3cc(OC)c(O)c(O)c3C2=O)cc1O` (single isomer, unassigned) [cremastranone isomer], the “decrease of binding of ferrochelatase to affinity reagent” value at ferrochelatase came out at 87%.
